Test results: PubChem BioAssay AID248 (DTP/NCI, 2004)
Where “and” joins values, the source holds several entries; their conditions need not be identical. Equal values may be shown once. Inconclusive results and toxic doses are left out. No stated cut-off is given here; in the data, active means T/C of 150% or more; inactive means T/C below 125%.

System: L1210 leukemia ip in BDF1 mice, survival T/C
Experiment: NCI In Vivo Anticancer Drug Screen. Data for tumor model L1210 Leukemia (intraperitoneal) in B6D2F1 (BDF1) mice
Conditions: endpoint: mean survival time, higher = longer survival
How it was run: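 Mice bearing the transplanted tumor received compound or vehicle. Survival of the treated group was divided by that of the vehicle-treated control group to give the ratio.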

[1] = dose: 50.0 mg/kg/injection, schedule: Q01DX001 (ip), vehicle: saline
[2] = dose: 100.0 mg/kg/injection, schedule: Q01DX001 (ip), vehicle: saline
[3] = dose: 200.0 mg/kg/injection, schedule: Q01DX001 (ip), vehicle: saline
[4] = dose: 400.0 mg/kg/injection, schedule: Q01DX001 (ip), vehicle: saline
[5] = dose: 100.0 mg/kg/injection, schedule: Q01DX001 (ip), vehicle: carboxymethylcellulose (CMC)
[6] = dose: 400.0 mg/kg/injection, schedule: Q01DX001 (ip), vehicle: carboxymethylcellulose (CMC)
[7] = dose: 100.0 mg/kg/injection, schedule: Q01DX009 (ip), vehicle: Klucel (hydroxypropylcellulose) (HPC)
[8] = dose: 200.0 mg/kg/injection, schedule: Q01DX009 (ip), vehicle: Klucel (hydroxypropylcellulose) (HPC)
[9] = dose: 50.0 mg/kg/injection, schedule: Q01DX009 (ip), vehicle: Klucel (hydroxypropylcellulose) (HPC)
[10] = dose: 100.0 mg/kg/injection, schedule: Q01DX001 (ip), vehicle: Klucel (hydroxypropylcellulose) (HPC)
[11] = dose: 100.0 mg/kg/injection, schedule: Q04DX003 (ip), vehicle: Klucel (hydroxypropylcellulose) (HPC)
[12] = dose: 200.0 mg/kg/injection, schedule: Q01DX001 (ip), vehicle: Klucel (hydroxypropylcellulose) (HPC)
[13] = dose: 400.0 mg/kg/injection, schedule: Q01DX009 (ip), vehicle: Klucel (hydroxypropylcellulose) (HPC)
[14] = dose: 100.0 mg/kg/injection, schedule: Q01DX009 (ip), vehicle: saline with Tween-80
[15] = dose: 200.0 mg/kg/injection, schedule: Q01DX009 (ip), vehicle: saline with Tween-80
[16] = dose: 400.0 mg/kg/injection, schedule: Q01DX009 (ip), vehicle: saline with Tween-80
[17] = dose: 200.0 mg/kg/injection, schedule: Q04DX003 (ip), vehicle: Klucel (hydroxypropylcellulose) (HPC)
[18] = dose: 400.0 mg/kg/injection, schedule: Q04DX003 (ip), vehicle: Klucel (hydroxypropylcellulose) (HPC)
[19] = dose: 100.0 mg/kg/injection, schedule: Q04DX003 (ip), vehicle: saline

Measured: T/C

CC(=O)Nc1cc([N+](=O)[O-])ccc1OCc1ccccc1
inactive: [1] 92 % of control | [2] 91 % of control | [3] 88 % of control | [4] 97 % of control

CCCC(C)c1cc([N+](=O)[O-])cc([N+](=O)[O-])c1O (configuration not stated)
inactive: dose: 3.12 mg/kg/injection, schedule: Q01DX009 (ip), vehicle: saline with Tween-80 107 % of control | dose: 6.25 mg/kg/injection, schedule: Q01DX009 (ip), vehicle: saline with Tween-80 98 % of control | dose: 12.5 mg/kg/injection, schedule: Q01DX009 (ip), vehicle: saline with Tween-80 91 % of control

O=[N+]([O-])c1ccc(C2ON2C2CCCCC2)cc1 (configuration not stated)
inactive: [5] 87 % of control | [6] 108 % of control

O=C(O)c1c(Br)c(Br)c(Br)c(Br)c1C(=O)Nc1ccc(Br)cc1
inactive: [7] 104 % of control | [8] 101 % of control

O=P(c1ccco1)(c1ccco1)c1ccco1
inactive: dose: 25.0 mg/kg/injection, schedule: Q04DX003 (ip), vehicle: saline with Tween-80 101 % of control | dose: 50.0 mg/kg/injection, schedule: Q04DX003 (ip), vehicle: saline with Tween-80 95 % of control

Cc1ccc(NC(=O)N(CCCCl)N=O)cc1
inactive: dose: 25.0 mg/kg/injection, schedule: Q01DX009 (ip), vehicle: Klucel (hydroxypropylcellulose) (HPC) 103 % of control | [9] 93 % of control | dose: 59.0 mg/kg/injection, schedule: Q01DX009 (ip), vehicle: carboxymethylcellulose (CMC) 120 % of control | dose: 88.0 mg/kg/injection, schedule: Q01DX009 (ip), vehicle: carboxymethylcellulose (CMC) 117 % of control | [5] 115 % of control | [7] 97 % of control | dose: 118.0 mg/kg/injection, schedule: Q01DX001 (sc), vehicle: olive oil, sesame oil, peanut oil 107 % of control | dose: 133.0 mg/kg/injection, schedule: Q01DX009 (ip), vehicle: carboxymethylcellulose (CMC) 88 % of control | dose: 177.0 mg/kg/injection, schedule: Q01DX001 (ip), vehicle: carboxymethylcellulose (CMC) 100 % of control and 113 % of control | dose: 177.0 mg/kg/injection, schedule: Q01DX001 (sc), vehicle: olive oil, sesame oil, peanut oil 107 % of control | dose: 200.0 mg/kg/injection, schedule: Q01DX001 (ip), vehicle: carboxymethylcellulose (CMC) 121 % of control | [8] 97 % of control | dose: 266.0 mg/kg/injection, schedule: Q01DX001 (ip), vehicle: carboxymethylcellulose (CMC) 105 % of control | dose: 266.0 mg/kg/injection, schedule: Q01DX001 (sc), vehicle: olive oil, sesame oil, peanut oil 102 % of control | [6] 113 % of control and 119 % of control | dose: 400.0 mg/kg/injection, schedule: Q01DX001 (sc), vehicle: olive oil, sesame oil, peanut oil 107 % of control

COc1cc(CCN)ccc1OCc1ccccc1
inactive: dose: 25.0 mg/kg/injection, schedule: Q04DX003 (ip), vehicle: Klucel (hydroxypropylcellulose) (HPC) 97 % of control | dose: 50.0 mg/kg/injection, schedule: Q04DX003 (ip), vehicle: Klucel (hydroxypropylcellulose) (HPC) 101 % of control | [10] 96 % of control | [11] 104 % of control and 105 % of control | [12] 94 % of control

O=C(O)CCCC1CCc2ccccc2C1 (configuration not stated)
inactive: [10] 104 % of control | [12] 102 % of control | dose: 400.0 mg/kg/injection, schedule: Q01DX001 (ip), vehicle: Klucel (hydroxypropylcellulose) (HPC) 103 % of control

CC(=O)c1cccc(N=Cc2ccc(Cl)cc2Cl)c1
inactive: [7] 95 % of control | [8] 93 % of control | [13] 93 % of control

OCCc1ccccc1
inactive: [14] 96 % of control | [15] 100 % of control | [16] 99 % of control

O=CNc1ccc2ccccc2c1
inactive: dose: 37.5 mg/kg/injection, schedule: Q04DX003 (ip), vehicle: Klucel (hydroxypropylcellulose) (HPC) 92 % of control | dose: 75.0 mg/kg/injection, schedule: Q04DX003 (ip), vehicle: Klucel (hydroxypropylcellulose) (HPC) 97 % of control | dose: 150.0 mg/kg/injection, schedule: Q04DX003 (ip), vehicle: Klucel (hydroxypropylcellulose) (HPC) 103 % of control

CC1OC2COC(C)OC2C(C(O)COC(c2ccccc2)(c2ccccc2)c2ccccc2)O1 (configuration not stated)
inactive: [7] 93 % of control | [11] 98 % of control | [8] 95 % of control | [17] 97 % of control | [13] 101 % of control | [18] 95 % of control

CCOC(OCC)C(C)(C)CNC
inactive: dose: 100.0 mg/kg/injection, schedule: Q01DX001 (ip), vehicle: saline sonified 90 % of control | dose: 200.0 mg/kg/injection, schedule: Q01DX001 (ip), vehicle: saline sonified 101 % of control | dose: 400.0 mg/kg/injection, schedule: Q01DX001 (ip), vehicle: saline sonified 107 % of control

Cc1nc(-c2ccccc2)[nH]c(=O)c1CC(O)c1ccccc1 (configuration not stated)
inactive: [11] 86 % of control | [17] 92 % of control | [18] 87 % of control

CON(C)c1nc2ccccc2o1
inactive: [1] 103 % of control | [2] 100 % of control | [3] 100 % of control | [4] 100 % of control

Cc1ccncc1C1CCCN1C (configuration not stated)
inactive: dose: 25.0 mg/kg/injection, schedule: Q04DX003 (ip), vehicle: saline 94 % of control | dose: 50.0 mg/kg/injection, schedule: Q04DX003 (ip), vehicle: saline 102 % of control | [19] 94 % of control

O=C(Nc1ccccc1)c1ccccc1C(O)(c1ccccc1)c1ccccn1 (configuration not stated)
inactive: [14] 95 % of control | [15] 97 % of control | [16] 92 % of control

O=C1SC(c2ccccc2)(c2ccccc2)c2cscc21
inactive: dose: 50.0 mg/kg/injection, schedule: Q01DX009 (ip), vehicle: saline with Tween-80 86 % of control | [14] 86 % of control

COc1ccc(OC)c2c(C)c(C)[nH]c12
inactive: [1] 98 % of control | [2] 93 % of control | [3] 109 % of control | [4] 106 % of control

CC(=O)OCC[N+](C)(C)CCCCC[N+](C)(C)CCOC(C)=O
inactive: dose: 100.0 mg/kg/injection, schedule: Q01DX009 (ip), vehicle: saline 100 % of control | [19] 95 % of control | dose: 200.0 mg/kg/injection, schedule: Q01DX009 (ip), vehicle: saline 113 % of control | dose: 200.0 mg/kg/injection, schedule: Q04DX003 (ip), vehicle: saline 102 % of control | dose: 400.0 mg/kg/injection, schedule: Q04DX003 (ip), vehicle: saline 88 % of control

O=C(O)c1ccc(CBr)c(CBr)c1
inactive: dose: 6.25 mg/kg/injection, schedule: Q04DX003 (ip), vehicle: saline with Tween-80 93 % of control | dose: 12.5 mg/kg/injection, schedule: Q04DX003 (ip), vehicle: saline with Tween-80 94 % of control

O=C1/C(=C\c2ccc([N+](=O)[O-])cc2)CS(=O)(=O)C/C1=C/c1ccc([N+](=O)[O-])cc1
inactive: [9] 97 % of control | [2] 97 % of control | [7] 93 % of control | [3] 94 % of control | [8] 92 % of control

COc1cc(N)c2c(c1N)C(=O)c1ccccc1C2=O
inactive: [7] 96 % of control | [11] 98 % of control | [8] 104 % of control | [17] 90 % of control | [13] 100 % of control | [18] 100 % of control
